From patent US20260028354A1, “TETRAHYDRONAPHTHALENE DERIVATIVES AS ESTROGEN RECEPTOR DEGRADERS” (REGENT OF THE UNIVERSITY OF MICHIGAN, priority 2022, published 2026)
Like-named read-outs stand apart in the source and are kept apart here.

Tests used:
CRBN/DDB1 = CRBN/DDB1 (Homo sapiens (Human), UniProt Q96SW2); assay type: binding; conditions: His tagged CRBN+DDB1, Cy5-labeled Thalidomide probe, one hour; read-out: CRBN HTRF IC50
Description: The binding potency was determined using HTRF assay technology (Perkin Elmer). Compounds were serially diluted in DMSO and […] volume was transferred to white 384-well plate.

ER in MCF-7 cells = ER in MCF-7 cells (Homo sapiens (Human), UniProt P03372); assay: In-cell Western (ICW) ER degradation assay in MCF-7 cells; assay type: cell-based; conditions: for DC50: MCF-7, ER degradation, read-out: MCF7 DC50; for MCF7 Dmax: MCF-7, maximal ER degradation
ER in T47D cells = ER in T47D cells (Homo sapiens (Human), UniProt P03372); assay: In-cell Western (ICW) ER degradation assay in T47D cells; assay type: cell-based; conditions: for DC50: ER degradation
MCF-7 cells = assay: CellTiter-Glo (CTG) cell proliferation assay in MCF-7 cells; assay type: cell-based; conditions: Homo sapiens, MCF7, 144 h, MCF-7 cell proliferation, Day 6
Description: CellTiter-Glo® (CTG) Assays in MCF-7 and T47D Cell Lines.
In vitro Assay: MCF-7 and T47D CTG assay

[1] = MCF7, read-out: MCF7 Dmax, MCF-7, maximal ER degradation, 16 hrs treatment
[2] = read-out: T47D Dmax, T47D, maximal ER degradation, 16 hrs treatment
[3] = MCF7, MCF-7, maximal ER degradation, 16 hrs treatment, read-out: MCF7 Dmax
[4] = maximal ER degradation, 16 hrs treatment, read-out: T47D Dmax

CRBN/DDB1, sequence (Q96SW2 whole entry, species assumed): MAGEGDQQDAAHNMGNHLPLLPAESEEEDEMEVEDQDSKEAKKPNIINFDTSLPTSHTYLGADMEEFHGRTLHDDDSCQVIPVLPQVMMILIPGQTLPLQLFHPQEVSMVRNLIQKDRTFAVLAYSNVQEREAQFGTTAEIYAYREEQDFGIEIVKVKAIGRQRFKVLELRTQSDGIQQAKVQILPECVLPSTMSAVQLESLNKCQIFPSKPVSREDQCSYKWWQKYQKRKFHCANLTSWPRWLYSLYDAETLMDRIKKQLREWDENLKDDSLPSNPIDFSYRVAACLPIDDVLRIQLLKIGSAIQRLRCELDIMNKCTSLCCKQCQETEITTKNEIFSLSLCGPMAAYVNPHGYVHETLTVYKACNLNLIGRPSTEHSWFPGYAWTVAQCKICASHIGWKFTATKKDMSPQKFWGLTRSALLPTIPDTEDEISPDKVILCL
CRBN/DDB1, sequence (Q16531 whole entry partner, species assumed): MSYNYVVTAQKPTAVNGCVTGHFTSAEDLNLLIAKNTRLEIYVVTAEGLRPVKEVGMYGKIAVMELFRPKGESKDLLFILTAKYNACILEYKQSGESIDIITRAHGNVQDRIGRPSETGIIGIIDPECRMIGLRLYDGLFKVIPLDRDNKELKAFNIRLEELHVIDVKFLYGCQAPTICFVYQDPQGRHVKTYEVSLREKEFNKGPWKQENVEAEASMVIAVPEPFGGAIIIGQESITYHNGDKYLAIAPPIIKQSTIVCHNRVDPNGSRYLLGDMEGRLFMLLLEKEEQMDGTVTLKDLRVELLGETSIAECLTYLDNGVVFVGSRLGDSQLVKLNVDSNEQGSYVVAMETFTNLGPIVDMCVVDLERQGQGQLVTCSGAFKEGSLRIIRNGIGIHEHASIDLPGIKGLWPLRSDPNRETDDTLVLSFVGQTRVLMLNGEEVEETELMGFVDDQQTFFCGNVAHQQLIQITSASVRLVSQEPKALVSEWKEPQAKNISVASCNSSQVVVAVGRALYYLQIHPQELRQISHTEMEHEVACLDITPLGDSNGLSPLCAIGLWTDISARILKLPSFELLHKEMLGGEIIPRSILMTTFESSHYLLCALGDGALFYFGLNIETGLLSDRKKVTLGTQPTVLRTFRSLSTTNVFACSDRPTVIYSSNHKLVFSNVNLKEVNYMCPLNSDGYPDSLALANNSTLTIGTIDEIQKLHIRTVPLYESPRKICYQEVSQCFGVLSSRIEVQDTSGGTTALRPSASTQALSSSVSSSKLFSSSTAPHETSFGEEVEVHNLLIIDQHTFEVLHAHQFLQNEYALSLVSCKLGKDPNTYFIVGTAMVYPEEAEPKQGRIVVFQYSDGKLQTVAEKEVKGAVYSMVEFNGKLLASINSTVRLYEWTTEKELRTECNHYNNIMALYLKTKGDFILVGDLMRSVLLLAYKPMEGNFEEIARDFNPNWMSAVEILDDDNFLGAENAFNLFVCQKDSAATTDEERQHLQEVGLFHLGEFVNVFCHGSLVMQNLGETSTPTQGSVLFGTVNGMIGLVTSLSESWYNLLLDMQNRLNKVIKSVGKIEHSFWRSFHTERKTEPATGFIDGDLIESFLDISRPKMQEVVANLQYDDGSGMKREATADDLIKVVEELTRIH
ER in T47D cells, sequence (P03372 whole entry): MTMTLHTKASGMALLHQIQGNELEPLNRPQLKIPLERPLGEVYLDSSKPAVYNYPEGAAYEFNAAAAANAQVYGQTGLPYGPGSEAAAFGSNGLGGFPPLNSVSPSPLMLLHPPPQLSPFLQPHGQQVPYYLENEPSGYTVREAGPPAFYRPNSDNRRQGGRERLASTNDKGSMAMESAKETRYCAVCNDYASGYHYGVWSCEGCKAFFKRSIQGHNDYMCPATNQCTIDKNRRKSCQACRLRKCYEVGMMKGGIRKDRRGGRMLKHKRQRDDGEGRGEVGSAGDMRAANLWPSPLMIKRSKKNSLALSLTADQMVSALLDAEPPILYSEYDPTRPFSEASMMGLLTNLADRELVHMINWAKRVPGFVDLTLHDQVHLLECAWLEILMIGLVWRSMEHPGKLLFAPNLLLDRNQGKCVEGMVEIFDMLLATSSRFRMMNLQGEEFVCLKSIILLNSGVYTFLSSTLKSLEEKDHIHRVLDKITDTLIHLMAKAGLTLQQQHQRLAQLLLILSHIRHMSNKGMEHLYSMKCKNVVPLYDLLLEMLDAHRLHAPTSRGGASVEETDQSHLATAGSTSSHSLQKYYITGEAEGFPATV
ER in MCF-7 cells, sequence (P03372 whole entry): as above

SMILES	IC50 (CRBN/DDB1)	DC50 (ER in MCF-7 cells; 16 hrs treatment)	DC50 (ER in T47D cells; 16 hrs treatment)	IC50 (MCF-7 cells)	also measured
COc1cc(N2CCC(CN3CC[C@]4(c5ccc(N[C@H]6CCC(=O)NC6=O)cc5)[C@H](C3)C4(F)F)CC2)ccc1[C@@H]1c2ccc(O)cc2CC[C@@H]1c1ccccc1 [Compound A90, (S)-3-((4-((1R,6R)-7,7-difluoro-3-((1-(4-((1S,2S)-6-hydroxy-2-phenyl-1,2,3,4-tetra-hydronaphthalen-1-yl)-3-meth-oxyphenyl)piperidin-4-yl)meth-yl)-3-azabicyclo[4.1.0]heptan-6-yl)phenyl)amino)piperidine-2,6-dione]	> 5000 nM	< 1 nM	< 1 nM	–	Dmax (ER in MCF-7 cells; [1]): 25 to 50%; Dmax (ER in T47D cells; [2]): 25 to 50%
COc1cc(N2CCC(CN3CC[C@@]4(c5ccc(N[C@H]6CCC(=O)NC6=O)cc5)C(C3)C4(F)F)CC2)ccc1[C@@H]1c2ccc(O)cc2CC[C@@H]1c1ccccc1 (stereo partly drawn) [Compound A92, (3S)-3-((4-((1R)-7,7-difluoro-3-((1-(4-((1S,2S)-6-hydroxy-2-phenyl-1,2,3,4-tetrahydronaph-thalen-1-yl)-3-methoxyphenyl)-piperidin-4-yl)methyl)-3-azabi-cyclo[4.1.0]heptan-6-yl)phen-yl)amino)piperidine-2,6-dione]	> 5000 nM	< 1 nM	1 to 10 nM	–	Dmax (ER in MCF-7 cells; [1]): 25 to 50%; Dmax (ER in T47D cells; [2]): 25 to 50%
COc1cc(N2CCC(CN3CCC4(CC3)COc3c4ccc4c3CN([C@H]3CCC(=O)NC3=O)C4=O)CC2)c(F)cc1[C@@H]1c2ccc(O)cc2CC[C@@H]1c1ccccc1 [Compound A93, (S)-3-(1′-((1-(2-fluoro-4-((1S,2S)-6-hydroxy-2-phenyl-1,2,3,4-tetrahydronaphthalen-1-yl)-5-methoxyphenyl)piperidin-4-yl)methyl)-6-oxo-6,8-dihydro-2H,7H-spiro[furo[2,3-e]isoindole-3,4′-piperidin]-7-yl)piperidine-2,6-dione]	< 50 nM	< 1 nM	< 1 nM	–	Dmax (ER in MCF-7 cells; [1]): 50 to 75%; Dmax (ER in T47D cells; [2]): 50 to 75%
COc1cc(N2CCC3(CC2)CC(CN2CCN4c5ccc(C(=O)N[C@H]6CCC(=O)NC6=O)nc5OC[C@@H]4C2)C3)c(F)cc1[C@@H]1c2ccc(O)cc2CC[C@@H]1c1ccccc1 [Compound A104, (S)-N-((S)-2,6-dioxopiperidin-3-yl)-3-((7-(2-fluoro-4-((1S,2S)-6-hydroxy-2-phenyl-1,2,3,4-tetrahydronaphthalen-1-yl)-5-methoxyphenyl)-7-azaspiro[3.5]nonan-2-yl)methyl)-1,2,3,4,4a,5-hexahydropyrazino[1,2-d]pyrido[2,3-b][1,4]oxazine-8-carboxamide]	> 5000 nM	1 to 10 nM	< 1 nM	–	Dmax (ER in MCF-7 cells; [3]): 50 to 75%; Dmax (ER in T47D cells; [4]): > 75%
COc1cc(N2CCC3(CC2)CC(CN2CCN4c5ccc(C(=O)N[C@H]6CCC(=O)NC6=O)nc5OC[C@H]4C2)C3)c(F)cc1[C@@H]1c2ccc(O)cc2CC[C@@H]1c1ccccc1 [Compound A111, (R)-N-((S)-2,6-dioxopiperidin-3-yl)-3-((7-(2-fluoro-4-((1S,2S)-6-hydroxy-2-phenyl-1,2,3,4-tetrahydronaphthalen-1-yl)-5-methoxyphenyl)-7-azaspiro[3.5]nonan-2-yl)methyl)-1,2,3,4,4a,5-hexahydropyrazino[1,2-d]pyrido[2,3-b][1,4]oxazine-8-carboxamide]	> 5000 nM	1 to 10 nM	1 to 10 nM	–	Dmax (ER in MCF-7 cells; [3]): 50 to 75%; Dmax (ER in T47D cells; [4]): > 75%
O=C1CC[C@H](N2Cc3cc4c(cc3C2=O)OC[C@@H]2CN(CC3CCC5(CC3)CN(c3ccc([C@@H]6c7ccc(O)cc7CC[C@@H]6c6ccccc6)cn3)C5)CCN42)C(=O)N1 [Compound A124, (S)-3-((S)-3-((2-(5-((1S,2S)-6-hydroxy-2-phenyl-1,2,3,4-tetrahydronaphthalen-1-yl)pyridin-2-yl)-2-azaspiro[3.5]nonan-7-yl)methyl)-8-oxo-1,2,3,4,4a,5,8,10-octahydro-9H-pyrazino[1′,2′: 4,5][1,4]oxazino[2,3-f]isoindol-9-yl)piperidine-2,6-dione]	500 to 5000 nM	10 to 100 nM	10 to 100 nM	–	MCF7 Dmax (ER in MCF-7 cells; 16 hrs treatment): B (“B”: >50 and <75%); Dmax (ER in T47D cells; [4]): 50 to 75%
O=C1CC[C@H](N2Cc3cc4c(cc3C2=O)OCC42CCN(CC3CC4(CCN(c5ccc([C@@H]6c7ccc(O)cc7CC[C@@H]6c6ccccc6)cn5)CC4)C3)CC2)C(=O)N1 [Compound A126, (S)-3-(1′-((7-(5-((1S,2S)-6-hydroxy-2-phenyl-1,2,3,4-tetra-hydronaphthalen-1-yl)pyridin-2-yl)-7-azaspiro[3.5]nonan-2-yl)methyl)-7-oxo-5,7-dihydro-2H,6H-spiro[furo[2,3-f]iso-indole-3,4′-piperidin]-6-yl)-piperidine-2,6-dione]	50 to 500 nM	< 1 nM	< 1 nM	–	MCF7 Dmax (ER in MCF-7 cells; 16 hrs treatment): B (“B”: >50 and <75%); T47D Dmax (ER in T47D cells; maximal ER degradation, 16 hrs treatment): A (“A”: >=75%)
O=C1CC[C@H](N2Cc3c(ccc4c3OCC43CCN(CC4CC5(CCN(c6ccc([C@H]7c8ccc(O)cc8CC[C@H]7c7ccccc7)cc6F)CC5)C4)CC3)C2=O)C(=O)N1 [Compound A148, (S)-3-(1′-((7-(2-fluoro-4-((1S,2R)-6-hydroxy-2-phenyl-1,2,3,4-tetrahydronaphthalen-1-yl)phenyl)-7-azaspiro[3.5]nonan-2-yl)methyl)-6-oxo-6,8-dihydro-2H,7H-spiro[furo[2,3-e]isoindole-3,4′-piperidin]-7-yl)piperidine-2,6-dione]	< 50 nM	< 1 nM	< 1 nM	–	Dmax (ER in MCF-7 cells; [1]): 50 to 75%; Dmax (ER in T47D cells; [2]): > 75%
COc1cc(N2CCC3(CC2)C[C@H](CN2CCC4(CC2)COc2c4cc(C)c4c2CN([C@H]2CCC(=O)NC2=O)C4=O)CO3)c(F)cc1[C@@H]1c2ccc(O)cc2CC[C@@H]1c1ccccc1 [Compound A208, (3S)-3-[1′-[[(3R)-8-[2-fluoro-4-[(1S,2S)-6-hydroxy-2-phenyl-tetralin-1-yl]-5-methoxy-phenyl]-1-oxa-8-azaspiro[4.5]decan-3-yl]methyl]-5-methyl-6-oxo-spiro[2,8-dihydrofuro[2,3-e]isoindole-3,4′-piperidine]-7-yl]piperidine-2,6-dione]	–	–	–	10 to 100 nM	–
Cc1cc2c(c3c1C(=O)N([C@H]1CCC(=O)NC1=O)C3)OCC21CCN(C[C@@H]2CCC3(CCN(c4ccc([C@@H]5c6ccc(O)cc6CC[C@@H]5c5ccccc5)cc4)CC3)OC2)CC1 [Compound A209, (S)-3-(1′-(((S)-9-(4-((1R,2S)-6-hydroxy-2-phenyl-1,2,3,4-tetrahydronaphthalen-1-yl)phenyl)-1-oxa-9-azaspiro[5.5]undecan-3-yl)methyl)-5-methyl-6-oxo-6,8-dihydro-2H,7H-spiro[furo[2,3-e]isoindole-3,4′-piperidin]-7-yl)piperidine-2,6-dione]	–	–	–	< 10 nM	–
COc1cc(N2CCC(CCN3CCC4(CC3)COc3c4cc(C)c4c3CN([C@H]3CCC(=O)NC3=O)C4=O)CC2)c(F)cc1[C@@H]1c2ccc(O)cc2CC[C@@H]1c1ccccc1 [Compound A213, (S)-3-(1′-(2-(1-(2-fluoro-4-((1S,2S)-6-hydroxy-2-phenyl-1,2,3,4-tetrahydronaphthalen-1-yl)-5-methoxyphenyl)piper-idin-4-yl)ethyl)-5-methyl-6-oxo-6,8-dihydro-2H,7H-spiro [furo[2,3-e]isoindole-3,4′-piperidin]-7-yl)piperidine-2,6-dione]	–	–	–	< 10 nM	–
Cc1cc2c(c3c1C(=O)N([C@H]1CCC(=O)NC1=O)C3)OCC21CCN(CC2CC3(CCN(c4ccc([C@@H]5c6ccc(O)cc6CC[C@@H]5c5ccccc5)cc4)CC3)C2)CC1 [Compound A214, (S)-3-(1′-((7-(4-((1R,2S)-6-hydroxy-2-phenyl-1,2,3,4-tetra-hydronaphthalen-1-yl)phenyl)-7-azaspiro[3.5]nonan-2-yl)-methyl)-5-methyl-6-oxo-6,8-dihydro-2H,7H-spiro[furo[2,3-c]isoindolc-3,4′-pipcridin]-7-yl)piperidine-2,6-dione]	–	–	–	< 10 nM	–
COc1cc(N2CCC(CCN3CCC4(CC3)COc3c4cc4c(c3Cl)C(=O)N([C@H]3CCC(=O)NC3=O)C4)CC2)c(F)cc1[C@@H]1c2ccc(O)cc2CC[C@@H]1c1ccccc1 [Compound A217, (S)-3-(8-chloro-1′-(2-(1-(2-fluoro-4-((1S,2S)-6-hydroxy-2-phenyl-1,2,3,4-tetrahydronaph-thalen-1-yl)-5-methoxyphenyl)-piperidin-4-yl)ethyl)-7-oxo-5,7-dihydro-2H,6H-spiro[furo[2,3-f]isoindole-3,4′-piperidin]-6-yl)piperidine-2,6-dione]	–	–	–	< 10 nM	–
COc1cc(N2CCC3(CC2)CC(CN2CCC4(CC2)COc2c4cc4c(c2C)C(=O)N([C@@H]2CCC(=O)NC2=O)C4)C3)c(F)cc1[C@@H]1c2ccc(O)cc2CC[C@@H]1c1ccccc1 [Compound A219, (R)-3-(1′-((7-(2-fluoro-4-((1S, 2S)-6-hydroxy-2-phenyl-1,2,3,4-tetrahydronaphthalen-1-yl)-5-methoxyphenyl)-7-aza-spiro[3.5]nonan-2-yl)methyl)-8-methyl-7-oxo-5,7-dihydro-2H,6H-spiro[furo[2,3-f]iso-indole-3,4′-piperidin]-6-yl)-piperidine-2,6-dione]	–	–	–	< 10 nM	–
